Values quoted from earlier work, collected in patent US11154542B2, “Nail lacquer composition containing ciclopirox” (GENUONE SCIENCES INC., priority 2015, dated 2021).

Test system: fungus
Settings: laboratory researches

CCC(C)(C)c1ccc(CC(C)CN2C[C@@H](C)O[C@@H](C)C2)cc1 (some centres unmarked) [amorolfine, Amorolfine]
antifungal activity: low antifungal activity
formation of spores that resist antifungal agents: effective in reducing the formation of spores
